Here are results for 13 molecules from ChEMBL document CHEMBL1777687, “Structure stability/activity relationships of sulfone stabilized N,N-dichloroamines” (Bioorg Med Chem Lett, 2011).

One data set relates to Escherichia coli. The experiment in a line: Bactericidal activity against Escherichia coli ATCC 25922 after 1 hr by CLSI M26-A method. It counts as functional. Particulars: ATCC 25922, 1 h.
For the next data set, the system named is Staphylococcus aureus. The experiment in a line: Bactericidal activity against Staphylococcus aureus ATCC 29213 after 1 hr by CLSI M26-A method. Particulars: ATCC 29213, 1 h. In kind it is functional.
The next data set deals with Candida albicans. The experiment in a line: Fungicidal activity against Candida albicans ATCC 10231 after 1 hr by CLSI M26-A method. Particulars: ATCC 10231, 1 h. It counts as functional.
The nature of data set [1]: Chemical stability of the compound assessed as half life in acetate buffer at pH 4. In kind it is physicochemical.
A short description of data set [2]: Chemical stability of the compound assessed as half life in phosphate buffer at pH 7. In kind it is physicochemical.
Data set [3] in a line: Chemical stability of the compound assessed as half life in 0.6% borate buffer at pH 7. It counts as physicochemical.

Converted amounts (≈) assume the structure as drawn.

The MBC is the lowest tested concentration that kills the bacteria rather than only halting them. High values mean weaker bactericidal potency, low ones greater bactericidal potency. What is called MFC is the smallest concentration meeting the test's criterion for killing the fungus. Lower therefore signals greater fungicidal potency. The term half-life denotes the time in which the quantity being followed falls by half. As for `CC(C)(CC[N+](C)(C)C)N(Cl)Cl.[Cl-]`, the MBC in the data set on Escherichia coli and with Staphylococcus aureus was 2 µg/mL throughout. The minimal fungicidal concentration (MFC) in the data set with Candida albicans turned out to be 64 µg/mL. Further, the half-life in data set [1] was more than 281 days; in data set [2] it was more than 210 days.
For the molecule `CC(C)(CCC[N+](C)(C)C)N(Cl)Cl.[Cl-]`, the MBC in the data set on Escherichia coli was 8 µg/mL; in the data set with Staphylococcus aureus, 2 µg/mL. Moreover, in the data set on Candida albicans, the minimal fungicidal concentration (MFC) came to 256 µg/mL. In addition, the values for the half-life in data set [1] and in data set [2] were 80 days and 56 days, respectively.
On the same counts, the results for `CC(C)(CCS(=O)(=O)CCS(=O)(=O)O)N(Cl)Cl` are 8 µg/mL (≈ 24.4 µM), 2 µg/mL (≈ 6.09 µM), 16 µg/mL (≈ 48.7 µM), more than 342 days and more than 342 days.
For `CC(C)(CCS(=O)(=O)CCCS(=O)(=O)O)N(Cl)Cl`, the MBC in the data set with Escherichia coli and in the data set on Staphylococcus aureus was 2 µg/mL (≈ 5.84 µM) throughout. In addition, the minimum fungicidal concentration (MFC) against Candida albicans was found to be 1020 µg/mL (≈ 2990 µM). Besides, the half-life in data set [1] is more than 112 days; in data set [2] it was 85 days.
On to `CC(C)(CCS(=O)(=O)CCS(=O)(=O)CCS(=O)(=O)O)N(Cl)Cl`, for which the MBC in the data set with Escherichia coli came to 2 µg/mL (≈ 4.76 µM); in the data set with Staphylococcus aureus, 4 µg/mL (≈ 9.52 µM). Further, the minimal fungicidal concentration (MFC) against Candida albicans came to 32 µg/mL (≈ 76.1 µM). Also, the half-life in data set [1] was more than 73 days; in data set [3] it was 14 days.
Consider `CC(C)(CCS(=O)(=O)CC[N+](C)(C)C)N(Cl)Cl.[Cl-]`, for which the MBC is 8 µg/mL in the data set with Escherichia coli and 2 µg/mL in the data set with Staphylococcus aureus. In addition, in the data set with Candida albicans, the MFC is 32 µg/mL. Further, the half-life in data set [1] was 6 days.
Regarding `CC(C)(CCS(=O)(=O)CCC[N+](C)(C)C)N(Cl)Cl.[Cl-]`, the minimum bactericidal concentration (MBC) against Escherichia coli was determined as 8 µg/mL; against Staphylococcus aureus, 2 µg/mL. This molecule yielded an MFC with Candida albicans of 32 µg/mL. In addition, the half-life in data set [1] was more than 160 days; in data set [3], 70 days.
On the same counts, the results for `CC(C)(CCS(=O)(=O)CCCCCCCCS(=O)(=O)O)N(Cl)Cl` are 2 µg/mL (≈ 4.85 µM), 4 µg/mL (≈ 9.7 µM), 8 µg/mL (≈ 19.4 µM), 182 days and 70 days.
Regarding `CC(C)(CCS(=O)(=O)CCCCCCCC[N+](C)(C)C)N(Cl)Cl.[Cl-]`, the MBC with Escherichia coli and with Staphylococcus aureus was 8 µg/mL each time. The MFC against Candida albicans came out at 32 µg/mL. Also, the half-life is 127 days in data set [1] and 74 days in data set [2].
Turning to `CC(C)(CCCS(=O)(=O)CCS(=O)(=O)O)N(Cl)Cl`, the MBC was 8 µg/mL (≈ 23.4 µM) in the data set on Escherichia coli and 2 µg/mL (≈ 5.84 µM) against Staphylococcus aureus. The MFC against Candida albicans turned out to be 128 µg/mL (≈ 374 µM). Moreover, the half-life in data set [1] and in data set [3] was 45 days throughout.
In the case of `CC(C)(CS(=O)(=O)[O-])N(Cl)Cl.[Na+]`, the minimal bactericidal concentration (MBC) in the data set on Escherichia coli and in the data set with Staphylococcus aureus was 2 µg/mL throughout. This molecule gave an MFC in the data set with Candida albicans of 32 µg/mL. Further, the results for the half-life in data set [1] and in data set [2] were more than 730 days and more than 300 days, respectively.
As for `CC(C)(CS(=O)(=O)CCS(=O)(=O)O)N(Cl)Cl`, the minimum bactericidal concentration (MBC) is 4 µg/mL (≈ 12.7 µM) in the data set on Escherichia coli and 8 µg/mL (≈ 25.5 µM) against Staphylococcus aureus. Moreover, the minimal fungicidal concentration (MFC) against Candida albicans stood at 64 µg/mL (≈ 204 µM). Further, the half-life was more than 93 days in data set [1] and 1 days in data set [2].
For `CC(C)(C[N+](C)(C)C)N(Cl)Cl.[Cl-]` the same measures were 16 µg/mL, 8 µg/mL, 128 µg/mL, more than 325 days and more than 396 days.
